# According to the Kinase Knowledgebase extract (Sharma et al. 2016):
# pIC50: −log10 of the molar value.
# How the values were obtained:
# PIK3CG (human) = PIK3CG (human) (UniProt P48736); assay: Inhibition of PIK3CG Kinase Activity
# PIK3CA (human) = PIK3CA (human) (UniProt P42336); assay: Inhibition of PIK3CA Kinase Activity
# PIK3CA (human), sequence (P42336 whole entry, looked up): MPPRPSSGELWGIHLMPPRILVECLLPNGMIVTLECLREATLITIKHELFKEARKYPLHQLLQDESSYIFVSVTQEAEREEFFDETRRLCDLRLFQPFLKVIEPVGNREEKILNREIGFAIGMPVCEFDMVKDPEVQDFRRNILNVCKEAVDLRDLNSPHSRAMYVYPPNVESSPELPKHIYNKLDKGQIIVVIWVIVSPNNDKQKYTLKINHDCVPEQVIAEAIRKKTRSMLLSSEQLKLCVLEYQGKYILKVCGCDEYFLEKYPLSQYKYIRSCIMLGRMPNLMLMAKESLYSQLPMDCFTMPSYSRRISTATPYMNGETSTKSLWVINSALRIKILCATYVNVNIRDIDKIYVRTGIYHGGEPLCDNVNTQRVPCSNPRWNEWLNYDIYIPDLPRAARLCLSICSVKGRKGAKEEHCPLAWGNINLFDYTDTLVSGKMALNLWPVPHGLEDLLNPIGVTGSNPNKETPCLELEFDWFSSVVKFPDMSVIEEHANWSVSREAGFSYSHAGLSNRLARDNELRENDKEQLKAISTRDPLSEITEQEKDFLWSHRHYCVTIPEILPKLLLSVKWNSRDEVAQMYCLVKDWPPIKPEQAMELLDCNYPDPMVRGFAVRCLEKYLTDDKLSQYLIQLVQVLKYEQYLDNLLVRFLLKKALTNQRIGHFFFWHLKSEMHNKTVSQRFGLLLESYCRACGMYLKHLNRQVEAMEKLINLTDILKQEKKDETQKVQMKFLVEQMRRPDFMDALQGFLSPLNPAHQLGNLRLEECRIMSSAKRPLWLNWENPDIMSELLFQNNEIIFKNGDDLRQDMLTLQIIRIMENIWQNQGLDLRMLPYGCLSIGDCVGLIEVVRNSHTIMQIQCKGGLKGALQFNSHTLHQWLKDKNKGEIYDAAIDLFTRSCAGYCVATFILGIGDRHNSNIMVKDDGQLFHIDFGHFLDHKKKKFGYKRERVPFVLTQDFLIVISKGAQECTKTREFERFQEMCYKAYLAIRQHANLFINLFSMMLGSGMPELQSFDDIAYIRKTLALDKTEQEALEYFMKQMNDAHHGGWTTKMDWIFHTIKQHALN
# PIK3CG (human), sequence (P48736 whole entry, looked up): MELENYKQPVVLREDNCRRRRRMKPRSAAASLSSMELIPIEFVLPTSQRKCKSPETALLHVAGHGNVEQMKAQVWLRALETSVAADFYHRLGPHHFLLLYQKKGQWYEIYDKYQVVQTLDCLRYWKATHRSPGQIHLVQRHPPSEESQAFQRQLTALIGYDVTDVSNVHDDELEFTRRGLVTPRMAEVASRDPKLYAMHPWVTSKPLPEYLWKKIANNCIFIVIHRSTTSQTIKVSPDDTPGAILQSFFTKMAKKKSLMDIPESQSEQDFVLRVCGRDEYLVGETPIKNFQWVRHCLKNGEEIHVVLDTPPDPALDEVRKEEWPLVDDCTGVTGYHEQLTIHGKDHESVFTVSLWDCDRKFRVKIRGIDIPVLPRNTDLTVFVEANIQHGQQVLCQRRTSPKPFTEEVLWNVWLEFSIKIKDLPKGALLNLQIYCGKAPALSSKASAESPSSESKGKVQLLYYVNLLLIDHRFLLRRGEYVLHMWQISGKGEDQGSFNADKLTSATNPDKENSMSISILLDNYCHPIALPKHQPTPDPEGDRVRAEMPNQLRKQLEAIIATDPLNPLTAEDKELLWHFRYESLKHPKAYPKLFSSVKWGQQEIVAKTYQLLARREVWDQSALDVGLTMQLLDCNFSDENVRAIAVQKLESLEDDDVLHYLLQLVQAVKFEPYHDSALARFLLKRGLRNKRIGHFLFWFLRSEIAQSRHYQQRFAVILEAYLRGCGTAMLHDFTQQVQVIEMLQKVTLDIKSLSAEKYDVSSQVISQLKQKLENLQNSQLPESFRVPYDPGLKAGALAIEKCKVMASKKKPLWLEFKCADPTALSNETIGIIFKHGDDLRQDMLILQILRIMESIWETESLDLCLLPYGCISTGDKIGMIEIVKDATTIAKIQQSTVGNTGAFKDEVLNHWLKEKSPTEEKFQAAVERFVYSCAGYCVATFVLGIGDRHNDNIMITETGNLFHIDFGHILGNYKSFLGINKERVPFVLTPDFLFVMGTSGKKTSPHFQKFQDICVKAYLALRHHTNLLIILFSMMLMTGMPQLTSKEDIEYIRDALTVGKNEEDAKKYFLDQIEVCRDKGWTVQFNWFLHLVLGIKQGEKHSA
SMILES,pIC50 (PIK3CG (human)),pIC50 (PIK3CA (human))
CN1CCN(C(=O)Nc2ccc(-c3nc(N4CCOCC4)c4ccc5c(ccn5C)c4n3)cc2)CC1,5.00,–
CN(C)CCCNC(=O)Nc1ccc(-c2nc(N3CCOCC3)c3ccc4c(ccn4C)c3n2)cc1,5.00,–
Cn1ccc2c3nc(-c4cccc(C(N)=O)c4)nc(N4CCOCC4)c3ccc21,5.13,5.59
Cn1ccc2c3nc(-c4cccc5[nH]ccc45)nc(C4COCCN4)c3ccc21 (stereo not drawn),5.33,5.20
Cn1ccc2c3nc(-c4cccc(C#N)c4)nc(N4CCOCC4)c3ccc21,5.56,5.37
Cn1ccc2c3nc(-c4ccc(C(=O)O)cc4)nc(N4CCOCC4)c3ccc21,5.01,4.92
CCCNC(=O)Nc1ccc(-c2nc(N3CCOCC3)c3ccc4c(ccn4C)c3n2)cc1,5.08,5.25
Cn1ccc2c3nc(-c4ccc(N)cc4)nc(N4CCOCC4)c3ccc21,5.00,–
